In patent US6914045B2, “Glycopeptide antibiotics” (Wyeth Holdings Corporation, priority 2001, dated 2005):
Values after ≈ are worked out from the molar mass of the structure shown.

Assays:
Experiment in all cases: in vitro antibacterial evaluation, MIC by broth dilution
Type in all cases: cell-based
[1] = system: Escherichia coli; settings: 18 hours at 35° C.
[2] = system: Enterococcus sp.; settings: broth dilution, 18 hours at 35° C.
In short: (§1)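 Broth dilution per NCCLS M7-A2 in Mueller-Hinton II medium, inoculum 5×10^5 CFU/mL, antibiotic range 64-0.06 μg/mL. MIC taken as lowest concentration inhibiting growth; Gram-positive panel includes recent clinical isolates resistant to methicillin, penicillin and/or vancomycin.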

[3] = system: Staphylococcus sp.; settings: broth dilution, 18 hours at 35° C.; for MIC Staphylococcus aureus (ATCC 29213): strain ATCC 29213; for MIC Staphylococcus aureus (GC 1131): strain GC 1131; for MIC Staphylococcus aureus (GC 3051): strain GC 3051; for MIC Staphylococcus aureus (GC 3053): strain GC 3053; for MIC Staphylococcus aureus (GC 4541): strain GC 4541; for MIC Staphylococcus aureus (GC 4542): strain GC 4542; for MIC Staphylococcus aureus-SMITH (GC 4543): strain GC 4543; for MIC Staphylococcus aureus (GC 4544): strain GC 4544; for MIC Staphylococcus aureus (GC 4545): strain GC 4545; for MIC Staphylococcus haemolyticus (GC 4546): strain GC 4546; for MIC Coagulase Negative Staphylococcus (GC 4547): strain GC 4547; for MIC Coagulase Negative Staphylococcus (GC 4548): strain GC 4548; for MIC Coagulase Negative Staphylococcus (GC 4549): strain GC 4549; for MIC Coagulase Negative Staphylococcus (GC 4551): strain GC 4551; for MIC Coagulase Negative Staphylococcus (GC 6257): strain GC 6257
In short: as §1

[4] = system: Streptococcus sp.; settings: broth dilution, 18 hours at 35° C.
In short: as §1

[5] = inoculum 5×10^5 CFU/mL, strain ATCC 29212
[6] = inoculum 5×10^5 CFU/mL, strain GC 2242
[7] = inoculum 5×10^5 CFU/mL, strain GC 2243
[8] = inoculum 5×10^5 CFU/mL, strain GC 2691
[9] = inoculum 5×10^5 CFU/mL, strain GC 3059
[10] = inoculum 5×10^5 CFU/mL, strain GC 4552
[11] = inoculum 5×10^5 CFU/mL, strain GC 4553
[12] = inoculum 5×10^5 CFU/mL, strain GC 4554
[13] = inoculum 5×10^5 CFU/mL, strain GC 4556
[14] = inoculum 5×10^5 CFU/mL, strain GC 4557
[15] = inoculum 5×10^5 CFU/mL, strain GC 4558
[16] = inoculum 5×10^5 CFU/mL, strain GC 6189
[17] = inoculum 5×10^5 CFU/mL, strain ATCC 6301
[18] = inoculum 5×10^5 CFU/mL, strain GC 1894
[19] = inoculum 5×10^5 CFU/mL, strain GC 4563
[20] = inoculum 5×10^5 CFU/mL, strain GC 4564
[21] = inoculum 5×10^5 CFU/mL, strain GC 4565

SMILES: CC(c1ccccc1)C1NC(=O)CNC(=O)C(CO)NC(=O)C(C(O)C2CNC(=N)N2C2OC(CO)C(O)C(O)C2O)NC(=O)C(C(O)C2CNC(=N)N2)NC(=O)C(Cc2ccc(OC3OC(CO)C(OC4OC5COC6(CCCCCCCCCCCC6)OC5C(O)C4O)C(O)C3O)cc2)NC1=O (stereo not drawn) [Example 210]
- MIC Escherichia coli (ATCC 25922) [1]: >64 µg/mL
- MIC Escherichia coli (GC 4559) [1]: >64 µg/mL
- MIC Escherichia coli (GC 4560) [1]: 64 µg/mL (≈ 43.4 µM)
- MIC Enterococcus avium (GC 4558) [2]: 16 µg/mL (≈ 10.9 µM)
- MIC Enterococcus faecalis (ATCC 29212) [2]: 32 µg/mL (≈ 21.7 µM)
- MIC Enterococcus faecalis (GC 2242) [2]: 16 µg/mL (≈ 10.9 µM)
- MIC Enterococcus faecalis (GC 2691) [2]: 8 µg/mL (≈ 5.43 µM)
- MIC Enterococcus faecalis (GC 3059) [2]: 32 µg/mL (≈ 21.7 µM)
- MIC Enterococcus faecalis (GC 4552) [2]: 32 µg/mL (≈ 21.7 µM)
- MIC Enterococcus faecalis (GC 4553) [2]: 16 µg/mL (≈ 10.9 µM)
- MIC Enterococcus faecalis (GC 4554) [2]: 32 µg/mL (≈ 21.7 µM)
- MIC Enterococcus faecalis (GC 6189) [2]: 16 µg/mL (≈ 10.9 µM)
- MIC Enterococcus faecium (GC 2243) [2]: 32 µg/mL (≈ 21.7 µM)
- MIC Enterococcus faecium (GC 4556) [2]: 32 µg/mL (≈ 21.7 µM)
- MIC Enterococcus faecium (GC 4557) [2]: 32 µg/mL (≈ 21.7 µM)
- MIC Enterococcus faecalis (ATCC 29212) [2, 5]: 32 µg/mL (≈ 21.7 µM)
- MIC Enterococcus faecalis (GC 2242) [2, 6]: 16 µg/mL (≈ 10.9 µM)
- MIC Enterococcus faecium (GC 2243) [2, 7]: 32 µg/mL (≈ 21.7 µM)
- MIC Enterococcus faecalis (GC 2691) [2, 8]: 8 µg/mL (≈ 5.43 µM)
- MIC Enterococcus faecalis (GC 3059) [2, 9]: 32 µg/mL (≈ 21.7 µM)
- MIC Enterococcus faecalis (GC 4552) [2, 10]: 32 µg/mL (≈ 21.7 µM)
- MIC Enterococcus faecalis (GC 4553) [2, 11]: 16 µg/mL (≈ 10.9 µM)
- MIC Enterococcus faecalis (GC 4554) [2, 12]: 32 µg/mL (≈ 21.7 µM)
- MIC Enterococcus faecium (GC 4556) [2, 13]: 32 µg/mL (≈ 21.7 µM)
- MIC Enterococcus faecium (GC 4557) [2, 14]: 32 µg/mL (≈ 21.7 µM)
- MIC Enterococcus avium (GC 4558) [2, 15]: 16 µg/mL (≈ 10.9 µM)
- MIC Enterococcus faecalis (GC 6189) [2, 16]: 16 µg/mL (≈ 10.9 µM)
- MIC Staphylococcus aureus (ATCC 29213) [3]: 32 µg/mL (≈ 21.7 µM)
- MIC Staphylococcus aureus (GC 1131) [3]: 32 µg/mL (≈ 21.7 µM)
- MIC Staphylococcus aureus (GC 3051) [3]: 32 µg/mL (≈ 21.7 µM)
- MIC Staphylococcus aureus (GC 3053) [3]: 32 µg/mL (≈ 21.7 µM)
- MIC Staphylococcus aureus (GC 4541) [3]: 32 µg/mL (≈ 21.7 µM)
- MIC Staphylococcus aureus (GC 4542) [3]: 32 µg/mL (≈ 21.7 µM)
- MIC Staphylococcus aureus-SMITH (GC 4543) [3]: 32 µg/mL (≈ 21.7 µM)
- MIC Staphylococcus aureus (GC 4544) [3]: 32 µg/mL (≈ 21.7 µM)
- MIC Staphylococcus aureus (GC 4545) [3]: 32 µg/mL (≈ 21.7 µM)
- MIC Staphylococcus haemolyticus (GC 4546) [3]: 32 µg/mL (≈ 21.7 µM)
- MIC Coagulase Negative Staphylococcus (GC 4547) [3]: 32 µg/mL (≈ 21.7 µM)
- MIC Coagulase Negative Staphylococcus (GC 4548) [3]: 32 µg/mL (≈ 21.7 µM)
- MIC Coagulase Negative Staphylococcus (GC 4549) [3]: 8 µg/mL (≈ 5.43 µM)
- MIC Coagulase Negative Staphylococcus (GC 4551) [3]: 32 µg/mL (≈ 21.7 µM)
- MIC Coagulase Negative Staphylococcus (GC 6257) [3]: 32 µg/mL (≈ 21.7 µM)
- MIC Streptococcus agalactiae (GC 4564) [4]: 0.25 µg/mL (≈ 0.17 µM)
- MIC Streptococcus pneumoniae (ATCC 6301) [4]: 0.25 µg/mL (≈ 0.17 µM)
- MIC Streptococcus pneumoniae (GC 1894) [4]: <0.06 µg/mL
- MIC Streptococcus pneumoniae (GC 4565) [4]: <0.06 µg/mL
- MIC Streptococcus pyogenes (GC 4563) [4]: 2 µg/mL (≈ 1.36 µM)
- MIC Streptococcus pneumoniae (ATCC 6301) [4, 17]: 0.25 µg/mL (≈ 0.17 µM)
- MIC Streptococcus pneumoniae (GC 1894) [4, 18]: <0.06 µg/mL
- MIC Streptococcus pyogenes (GC 4563) [4, 19]: 2 µg/mL (≈ 1.36 µM)
- MIC Streptococcus agalactiae (GC 4564) [4, 20]: 0.25 µg/mL (≈ 0.17 µM)
- MIC Streptococcus pneumoniae (GC 4565) [4, 21]: <0.06 µg/mL

SMILES: CC(c1ccccc1)C1NC(=O)CNC(=O)C(CO)NC(=O)C(C(O)C2CNC(=N)N2C2OC(CO)C(O)C(O)C2O)NC(=O)C(C(O)C2CNC(=N)N2)NC(=O)C(Cc2ccc(OC3OC(CO)C(OC4OC5COC(c6cccc(Oc7cccc(C(F)(F)F)c7)c6)OC5C(O)C4O)C(O)C3O)cc2)NC1=O (stereo not drawn) [Example 184]
- MIC Escherichia coli (ATCC 25922) [1]: >64 µg/mL
- MIC Escherichia coli (GC 4559) [1]: >64 µg/mL
- MIC Escherichia coli (GC 4560) [1]: 32 µg/mL (≈ 20.7 µM)
- MIC Enterococcus avium (GC 4558) [2]: 32 µg/mL (≈ 20.7 µM)
- MIC Enterococcus faecalis (ATCC 29212) [2]: 32 µg/mL (≈ 20.7 µM)
- MIC Enterococcus faecalis (GC 2242) [2]: 32 µg/mL (≈ 20.7 µM)
- MIC Enterococcus faecalis (GC 2691) [2]: 32 µg/mL (≈ 20.7 µM)
- MIC Enterococcus faecalis (GC 3059) [2]: 32 µg/mL (≈ 20.7 µM)
- MIC Enterococcus faecalis (GC 4552) [2]: 32 µg/mL (≈ 20.7 µM)
- MIC Enterococcus faecalis (GC 4553) [2]: 16 µg/mL (≈ 10.4 µM)
- MIC Enterococcus faecalis (GC 4554) [2]: 32 µg/mL (≈ 20.7 µM)
- MIC Enterococcus faecalis (GC 6189) [2]: 32 µg/mL (≈ 20.7 µM)
- MIC Enterococcus faecium (GC 2243) [2]: 16 µg/mL (≈ 10.4 µM)
- MIC Enterococcus faecium (GC 4556) [2]: 32 µg/mL (≈ 20.7 µM)
- MIC Enterococcus faecium (GC 4557) [2]: 32 µg/mL (≈ 20.7 µM)
- MIC Enterococcus faecalis (ATCC 29212) [2, 5]: 32 µg/mL (≈ 20.7 µM)
- MIC Enterococcus faecalis (GC 2242) [2, 6]: 32 µg/mL (≈ 20.7 µM)
- MIC Enterococcus faecium (GC 2243) [2, 7]: 16 µg/mL (≈ 10.4 µM)
- MIC Enterococcus faecalis (GC 2691) [2, 8]: 32 µg/mL (≈ 20.7 µM)
- MIC Enterococcus faecalis (GC 3059) [2, 9]: 32 µg/mL (≈ 20.7 µM)
- MIC Enterococcus faecalis (GC 4552) [2, 10]: 32 µg/mL (≈ 20.7 µM)
- MIC Enterococcus faecalis (GC 4553) [2, 11]: 16 µg/mL (≈ 10.4 µM)
- MIC Enterococcus faecalis (GC 4554) [2, 12]: 32 µg/mL (≈ 20.7 µM)
- MIC Enterococcus faecium (GC 4556) [2, 13]: 32 µg/mL (≈ 20.7 µM)
- MIC Enterococcus faecium (GC 4557) [2, 14]: 32 µg/mL (≈ 20.7 µM)
- MIC Enterococcus avium (GC 4558) [2, 15]: 32 µg/mL (≈ 20.7 µM)
- MIC Enterococcus faecalis (GC 6189) [2, 16]: 32 µg/mL (≈ 20.7 µM)
- MIC Staphylococcus aureus (GC 1131) ([3]; inoculum 5×10^5 CFU/mL): 32 µg/mL (≈ 20.7 µM)
- MIC Staphylococcus aureus (ATCC 29213) [3]: 32 µg/mL (≈ 20.7 µM)
- MIC Staphylococcus aureus (GC 1131) [3]: 32 µg/mL (≈ 20.7 µM)
- MIC Staphylococcus aureus (GC 3051) [3]: 32 µg/mL (≈ 20.7 µM)
- MIC Staphylococcus aureus (GC 3053) [3]: 32 µg/mL (≈ 20.7 µM)
- MIC Staphylococcus aureus (GC 4541) [3]: 32 µg/mL (≈ 20.7 µM)
- MIC Staphylococcus aureus (GC 4542) [3]: 32 µg/mL (≈ 20.7 µM)
- MIC Staphylococcus aureus-SMITH (GC 4543) [3]: 32 µg/mL (≈ 20.7 µM)
- MIC Staphylococcus aureus (GC 4544) [3]: 32 µg/mL (≈ 20.7 µM)
- MIC Staphylococcus aureus (GC 4545) [3]: 32 µg/mL (≈ 20.7 µM)
- MIC Staphylococcus haemolyticus (GC 4546) [3]: 32 µg/mL (≈ 20.7 µM)
- MIC Coagulase Negative Staphylococcus (GC 4547) [3]: 32 µg/mL (≈ 20.7 µM)
- MIC Coagulase Negative Staphylococcus (GC 4548) [3]: 16 µg/mL (≈ 10.4 µM)
- MIC Coagulase Negative Staphylococcus (GC 4549) [3]: 32 µg/mL (≈ 20.7 µM)
- MIC Coagulase Negative Staphylococcus (GC 4551) [3]: 32 µg/mL (≈ 20.7 µM)
- MIC Coagulase Negative Staphylococcus (GC 6257) [3]: 16 µg/mL (≈ 10.4 µM)
- MIC Streptococcus agalactiae (GC 4564) [4]: 0.12 µg/mL (≈ 0.0777 µM)
- MIC Streptococcus pneumoniae (ATCC 6301) [4]: <0.06 µg/mL
- MIC Streptococcus pneumoniae (GC 1894) [4]: <0.06 µg/mL
- MIC Streptococcus pneumoniae (GC 4565) [4]: <0.06 µg/mL
- MIC Streptococcus pyogenes (GC 4563) [4]: 0.25 µg/mL (≈ 0.162 µM)
- MIC Streptococcus pneumoniae (ATCC 6301) [4, 17]: <0.06 µg/mL
- MIC Streptococcus pneumoniae (GC 1894) [4, 18]: <0.06 µg/mL
- MIC Streptococcus pyogenes (GC 4563) [4, 19]: 0.25 µg/mL (≈ 0.162 µM)
- MIC Streptococcus agalactiae (GC 4564) [4, 20]: 0.12 µg/mL (≈ 0.0777 µM)
- MIC Streptococcus pneumoniae (GC 4565) [4, 21]: <0.06 µg/mL
